According to ChEMBL document CHEMBL3885861, “Open TG-GATES”:

Species on record: Rattus norvegicus
Assay: Open TG-GATES - Regimen: Single
Type: toxicity, organism-based, Sprague-Dawley
Design: regimen Single, gender Male, age 6 weeks
Details: in vivo, po, route gavage; for APTT / Bas / Eos / Fbg / Hb / Ht / Lym / MCHC / MCV / Mono / PT / Plat / RBC / Ret / WBC / Neu: tissue Blood; for KIDNEY_L / KIDNEY_R / KIDNEY_TOTAL: tissue Kidney; for LIVER: tissue Liver; for ALP / ALT / AST / BUN / CRE / Ca / Cl / DBIL / IP / LDH / Na / PL / RALB / TBIL / TC / TG / TP / gamma-GTP / GLC: tissue Plasma
[1] = 0 mg/kg, 3 h, dose level Control
[2] = 0 mg/kg, 6 h, dose level Control
[3] = 0 mg/kg, 9 h, dose level Control
[4] = 0 mg/kg, 24 h, dose level Control
[5] = 120 mg/kg, 3 h, dose level Middle

## CC(C)N(CCC(C(N)=O)(c1ccccc1)c1ccccn1)C(C)C (stereo not drawn) [DISOPYRAMIDE]
[1]
  TERMINAL_BW: 207.1 g
  APTT: 21.7 s
  Bas: 0%
  Eos: 1%
  Fbg: 318.8 mg/dL
  Hb: 13.2 g/dL
  Ht: 41.1%
  Lym: 77.6%
  MCHC: 32.1%
  MCV: 64.4 fL
  Mono: 2.6%
  PT: 15.8 s
  Plat: 117.3 x10_4/uL
  RBC: 638.6 x10_4/ul
  Ret: 8%
  WBC: 84.7 x10_2/uL
  KIDNEY_L: 0.9 g
  KIDNEY_R: 0.9 g
  KIDNEY_TOTAL: 1.9 g
  LIVER: 9.6 g
  ALP: 1747.4 IU/L
  ALT: 51 IU/L
  AST: 79.8 IU/L
  BUN: 12.4 mg/dL
  CRE: 0.2 mg/dL
  Ca: 10.5 mg/dL
  Cl: 108.2 meq/L
  DBIL: 0 mg/dL
  IP: 8.5 mg/dL
  LDH: 193.8 IU/L
  Na: 141.8 meq/L
  PL: 122.6 mg/dL
  RALB: 2.9 g/dL
  TBIL: 0.006 mg/dL
  TC: 69 mg/dL
  TG: 45.4 mg/dL
  TP: 5.4 g/dL
  gamma-GTP: 1.4 IU/L
[2]
  TERMINAL_BW: 210.2 g
  APTT: 22.4 s
  Bas: 0%
  Eos: 0.4%
  Fbg: 310.2 mg/dL
  Ht: 39.9%
  Lym: 80.8%
  MCHC: 32%
  MCV: 64.8 fL
  Mono: 2.6%
  PT: 15.7 s
  Plat: 122.8 x10_4/uL
  RBC: 615.4 x10_4/ul
  Ret: 7.8%
  WBC: 110.6 x10_2/uL
  KIDNEY_L: 1 g
  KIDNEY_R: 1 g
  KIDNEY_TOTAL: 1.9 g
  LIVER: 9.3 g
  ALT: 42.4 IU/L
  AST: 73.2 IU/L
  BUN: 13 mg/dL
  CRE: 0.1 mg/dL
  Ca: 10.8 mg/dL
  Cl: 105.6 meq/L
  DBIL: 0 mg/dL
  IP: 9.3 mg/dL
  LDH: 164.8 IU/L
  Na: 140.6 meq/L
  PL: 135 mg/dL
  RALB: 2.9 g/dL
  TBIL: 0.004 mg/dL
  TC: 72.6 mg/dL
  TG: 91 mg/dL
  TP: 5.5 g/dL
  gamma-GTP: 1.2 IU/L
[3]
  TERMINAL_BW: 204.9 g
  APTT: 22.5 s
  Bas: 0%
  Eos: 0.4%
  Fbg: 300.8 mg/dL
  Hb: 12.9 g/dL
  Ht: 40%
  Lym: 80.6%
  MCHC: 32.3%
  MCV: 62.7 fL
  Mono: 2.6%
  PT: 15.9 s
  Plat: 113.2 x10_4/uL
  RBC: 638.2 x10_4/ul
  Ret: 7.5%
  WBC: 90.9 x10_2/uL
  KIDNEY_L: 1 g
  KIDNEY_R: 1 g
  KIDNEY_TOTAL: 2 g
  LIVER: 8.8 g
  ALP: 1336.4 IU/L
  ALT: 41.6 IU/L
  AST: 72.8 IU/L
  BUN: 13.4 mg/dL
  CRE: 0.1 mg/dL
  Ca: 10.5 mg/dL
  Cl: 106.6 meq/L
  DBIL: 0.002 mg/dL
  IP: 9.2 mg/dL
  LDH: 146.8 IU/L
  Na: 141.6 meq/L
  PL: 116.8 mg/dL
  RALB: 2.9 g/dL
  TBIL: 0.002 mg/dL
  TC: 62.4 mg/dL
  TG: 61.4 mg/dL
  TP: 5.4 g/dL
  gamma-GTP: 1.2 IU/L
[4]
  TERMINAL_BW: 222.5 g
  APTT: 21.9 s
  Bas: 0%
  Eos: 1%
  Fbg: 317 mg/dL
  Hb: 13.2 g/dL
  Ht: 40.9%
  Lym: 82.6%
  MCHC: 32.3%
  MCV: 65 fL
  Mono: 2.4%
  PT: 16 s
  Plat: 117 x10_4/uL
  RBC: 629.4 x10_4/ul
  Ret: 7.9%
  WBC: 80.5 x10_2/uL
  KIDNEY_L: 1 g
  KIDNEY_R: 1 g
  KIDNEY_TOTAL: 2 g
  LIVER: 10.6 g
  ALP: 1631 IU/L
  ALT: 53.6 IU/L
  AST: 78.6 IU/L
  BUN: 17 mg/dL
  CRE: 0.2 mg/dL
  Ca: 10.7 mg/dL
  Cl: 105 meq/L
  DBIL: 0 mg/dL
  IP: 7.8 mg/dL
  LDH: 192.4 IU/L
  PL: 143.2 mg/dL
  RALB: 3 g/dL
  TBIL: 0 mg/dL
  TC: 71.8 mg/dL
  TG: 104 mg/dL
  TP: 5.5 g/dL
  gamma-GTP: 2 IU/L
40 mg/kg, 3 h, dose level Low
  TERMINAL_BW: 208.4 g
  APTT: 23 s
  Bas: 0%
  Eos: 1%
  Fbg: 313.4 mg/dL
  Hb: 13 g/dL
  Ht: 40.8%
  Lym: 79.6%
  MCHC: 32%
  MCV: 64.4 fL
  Mono: 2.6%
  Neu: 15.8%
  PT: 15.5 s
  Plat: 122.4 x10_4/uL
  RBC: 633.6 x10_4/ul
  Ret: 8.2%
  WBC: 102.4 x10_2/uL
  KIDNEY_L: 0.9 g
  KIDNEY_R: 1 g
  KIDNEY_TOTAL: 1.9 g
  LIVER: 9.9 g
  ALP: 1280.4 IU/L
  ALT: 48.2 IU/L
  AST: 73.2 IU/L
  BUN: 10.6 mg/dL
  CRE: 0.2 mg/dL
  Ca: 10.7 mg/dL
  Cl: 107.4 meq/L
  DBIL: 0 mg/dL
  IP: 8.5 mg/dL
  LDH: 163.4 IU/L
  Na: 140.8 meq/L
  PL: 143.2 mg/dL
  RALB: 3 g/dL
  TBIL: 0.002 mg/dL
  TC: 82.4 mg/dL
  TG: 60.6 mg/dL
  TP: 5.5 g/dL
  gamma-GTP: 1.6 IU/L
40 mg/kg, 6 h, dose level Low
  TERMINAL_BW: 212.3 g
  APTT: 21.2 s
  Bas: 0%
  Eos: 0.6%
  Fbg: 307.6 mg/dL
  Hb: 13 g/dL
  Ht: 40.9%
  Lym: 80.6%
  MCHC: 31.8%
  MCV: 64.3 fL
  Mono: 2.4%
  Neu: 15.8%
  PT: 15.5 s
  Plat: 119.9 x10_4/uL
  RBC: 635.8 x10_4/ul
  Ret: 8.1%
  WBC: 80.4 x10_2/uL
  KIDNEY_L: 1 g
  KIDNEY_R: 1 g
  KIDNEY_TOTAL: 2 g
  LIVER: 9.3 g
  ALP: 1258.6 IU/L
  ALT: 40 IU/L
  AST: 71.2 IU/L
  BUN: 12.4 mg/dL
  CRE: 0.1 mg/dL
  Ca: 10.8 mg/dL
  Cl: 106.2 meq/L
  DBIL: 0 mg/dL
  GLC: 168.6 mg/dL
  IP: 9.5 mg/dL
  LDH: 161.8 IU/L
  Na: 140 meq/L
  PL: 132.2 mg/dL
  RALB: 3 g/dL
  TBIL: 0.008 mg/dL
  TC: 75 mg/dL
  TG: 75.8 mg/dL
  TP: 5.4 g/dL
  gamma-GTP: 1 IU/L
40 mg/kg, 9 h, dose level Low
  TERMINAL_BW: 203.3 g
  APTT: 21.6 s
  Bas: 0%
  Eos: 0.6%
  Fbg: 328.4 mg/dL
  Hb: 13 g/dL
  Ht: 40.3%
  Lym: 77.6%
  MCHC: 32.3%
  MCV: 64 fL
  Mono: 2%
  PT: 15.6 s
  Plat: 124.6 x10_4/uL
  RBC: 630.4 x10_4/ul
  Ret: 7.9%
  WBC: 88.7 x10_2/uL
  KIDNEY_L: 0.9 g
  KIDNEY_R: 1 g
  KIDNEY_TOTAL: 1.9 g
  LIVER: 8.7 g
  ALP: 1420.4 IU/L
  ALT: 34.2 IU/L
  AST: 68.6 IU/L
  BUN: 12.4 mg/dL
  CRE: 0.1 mg/dL
  Ca: 10.8 mg/dL
  Cl: 107.2 meq/L
  DBIL: 0 mg/dL
  GLC: 169.6 mg/dL
  IP: 9.5 mg/dL
  LDH: 151.6 IU/L
  Na: 140.8 meq/L
  PL: 129.4 mg/dL
  RALB: 3.1 g/dL
  TBIL: 0.008 mg/dL
  TC: 75.4 mg/dL
  TG: 58.2 mg/dL
  TP: 5.5 g/dL
  gamma-GTP: 1.2 IU/L
40 mg/kg, 24 h, dose level Low
  TERMINAL_BW: 217.8 g
  APTT: 22.7 s
  Bas: 0%
  Eos: 0.8%
  Fbg: 306 mg/dL
  Hb: 13.2 g/dL
  Ht: 40.2%
  Lym: 79.4%
  MCHC: 32.8%
  MCV: 64.5 fL
  Mono: 1.8%
  Neu: 17.2%
  PT: 15.3 s
  Plat: 115.3 x10_4/uL
  RBC: 623 x10_4/ul
  Ret: 7%
  WBC: 91.1 x10_2/uL
  KIDNEY_L: 0.9 g
  KIDNEY_R: 1 g
  KIDNEY_TOTAL: 1.9 g
  LIVER: 10.5 g
  ALP: 1700.4 IU/L
  ALT: 47.2 IU/L
  AST: 71.8 IU/L
  BUN: 15.4 mg/dL
  CRE: 0.1 mg/dL
  Ca: 10.6 mg/dL
  Cl: 105.6 meq/L
  DBIL: 0 mg/dL
  IP: 8 mg/dL
  LDH: 156.2 IU/L
  Na: 142.8 meq/L
  PL: 147 mg/dL
  RALB: 3 g/dL
  TBIL: 0.002 mg/dL
  TC: 76.4 mg/dL
  TG: 96 mg/dL
  TP: 5.4 g/dL
  gamma-GTP: 1.6 IU/L
[5]
  TERMINAL_BW: 205.2 g
  APTT: 23.3 s
